Experiment: The drug is tested on Bacteroides fragilis strain: HMW610 for biotransformation. The drug concentrations were measured before and after a 12-h incubation by liquid-chromatography-coupled mass spectrometry (LC–MS)
Details: 2 µM

SMILES	Bacterial Biotransformation
CCN(CC)CCNC(=O)c1cc(S(C)(=O)=O)ccc1OC [TIAPRIDE]	Compound NOT metabolized
CCCCC(=O)N(Cc1ccc(-c2ccccc2-c2nnn[nH]2)cc1)[C@H](C(=O)O)C(C)C	Compound metabolized
COc1ccc(/C=C/C(=O)Nc2ccccc2C(=O)O)cc1OC	Compound metabolized
COC(=O)[C@H]1[C@H]2C[C@@H]3c4[nH]c5cc(OC)ccc5c4CCN3C[C@H]2C[C@@H](OC(=O)c2cc(OC)c(OC)c(OC)c2)[C@@H]1OC [RESERPINE]	Compound NOT metabolized

Experiment: The drug is tested on Clostridium sp. strain: fecal isolate for biotransformation. The drug concentrations were measured before and after a 12-h incubation by liquid-chromatography-coupled mass spectrometry (LC–MS)
Details: 2 µM

SMILES	Bacterial Biotransformation
CCN(CC)CCNC(=O)c1cc(S(C)(=O)=O)ccc1OC [TIAPRIDE]	Compound NOT metabolized
CCCCC(=O)N(Cc1ccc(-c2ccccc2-c2nnn[nH]2)cc1)[C@H](C(=O)O)C(C)C	Compound NOT metabolized
COc1ccc(/C=C/C(=O)Nc2ccccc2C(=O)O)cc1OC	Compound NOT metabolized
COC(=O)[C@H]1[C@H]2C[C@@H]3c4[nH]c5cc(OC)ccc5c4CCN3C[C@H]2C[C@@H](OC(=O)c2cc(OC)c(OC)c(OC)c2)[C@@H]1OC [RESERPINE]	Compound NOT metabolized

Experiment: The drug is tested on Odoribacter splanchnicus strain: fecal isolate for biotransformation. The drug concentrations were measured before and after a 12-h incubation by liquid-chromatography-coupled mass spectrometry (LC–MS)
Details: 2 µM

SMILES	Bacterial Biotransformation
CCN(CC)CCNC(=O)c1cc(S(C)(=O)=O)ccc1OC [TIAPRIDE]	Compound NOT metabolized
CCCCC(=O)N(Cc1ccc(-c2ccccc2-c2nnn[nH]2)cc1)[C@H](C(=O)O)C(C)C	Compound metabolized
COc1ccc(/C=C/C(=O)Nc2ccccc2C(=O)O)cc1OC	Compound NOT metabolized

Experiment: The drug is tested on Clostridium ramosum strain: DSM1402 for biotransformation. The drug concentrations were measured before and after a 12-h incubation by liquid-chromatography-coupled mass spectrometry (LC–MS)
Details: thomasclavelia ramosa, 2 µM

SMILES	Bacterial Biotransformation
CCN(CC)CCNC(=O)c1cc(S(C)(=O)=O)ccc1OC [TIAPRIDE]	Compound NOT metabolized
CCCCC(=O)N(Cc1ccc(-c2ccccc2-c2nnn[nH]2)cc1)[C@H](C(=O)O)C(C)C	Compound NOT metabolized
COc1ccc(/C=C/C(=O)Nc2ccccc2C(=O)O)cc1OC	Compound NOT metabolized
COC(=O)[C@H]1[C@H]2C[C@@H]3c4[nH]c5cc(OC)ccc5c4CCN3C[C@H]2C[C@@H](OC(=O)c2cc(OC)c(OC)c(OC)c2)[C@@H]1OC [RESERPINE]	Compound NOT metabolized

Details: roseburia intestinalis, 12 h, 2 µM
Description: The drug is tested on Roseburia intestinalis strain: L1-82 for biotransformation. The drug concentrations were measured before and after a 12-h incubation by liquid-chromatography-coupled mass spectrometry (LC–MS)

SMILES	Bacterial Biotransformation
CCN(CC)CCNC(=O)c1cc(S(C)(=O)=O)ccc1OC [TIAPRIDE]	Compound NOT metabolized
COc1ccc(/C=C/C(=O)Nc2ccccc2C(=O)O)cc1OC	Compound NOT metabolized
COC(=O)[C@H]1[C@H]2C[C@@H]3c4[nH]c5cc(OC)ccc5c4CCN3C[C@H]2C[C@@H](OC(=O)c2cc(OC)c(OC)c(OC)c2)[C@@H]1OC [RESERPINE]	Compound NOT metabolized

Experiment: The drug is tested on Edwardsiella tarda strain: ATCC23685 for biotransformation. The drug concentrations were measured before and after a 12-h incubation by liquid-chromatography-coupled mass spectrometry (LC–MS)
Details: 2 µM

SMILES	Bacterial Biotransformation
CCN(CC)CCNC(=O)c1cc(S(C)(=O)=O)ccc1OC [TIAPRIDE]	Compound NOT metabolized
CCCCC(=O)N(Cc1ccc(-c2ccccc2-c2nnn[nH]2)cc1)[C@H](C(=O)O)C(C)C	Compound NOT metabolized
COc1ccc(/C=C/C(=O)Nc2ccccc2C(=O)O)cc1OC	Compound NOT metabolized
COC(=O)[C@H]1[C@H]2C[C@@H]3c4[nH]c5cc(OC)ccc5c4CCN3C[C@H]2C[C@@H](OC(=O)c2cc(OC)c(OC)c(OC)c2)[C@@H]1OC [RESERPINE]	Compound NOT metabolized

Experiment: The drug is tested on Bacteroides pectinophilus strain: ATCC43243 for biotransformation. The drug concentrations were measured before and after a 12-h incubation by liquid-chromatography-coupled mass spectrometry (LC–MS)
Details: 2 µM

SMILES	Bacterial Biotransformation
CCN(CC)CCNC(=O)c1cc(S(C)(=O)=O)ccc1OC [TIAPRIDE]	Compound NOT metabolized
CCCCC(=O)N(Cc1ccc(-c2ccccc2-c2nnn[nH]2)cc1)[C@H](C(=O)O)C(C)C	Compound NOT metabolized
COc1ccc(/C=C/C(=O)Nc2ccccc2C(=O)O)cc1OC	Compound NOT metabolized

Details: bacteroides fragilis, 12 h, 2 µM
Description: The drug is tested on Bacteroides fragilis strain: 3397 (T10) for biotransformation. The drug concentrations were measured before and after a 12-h incubation by liquid-chromatography-coupled mass spectrometry (LC–MS)

SMILES	Bacterial Biotransformation
CCCCC(=O)N(Cc1ccc(-c2ccccc2-c2nnn[nH]2)cc1)[C@H](C(=O)O)C(C)C	Compound NOT metabolized
COc1ccc(/C=C/C(=O)Nc2ccccc2C(=O)O)cc1OC	Compound NOT metabolized
COC(=O)[C@H]1[C@H]2C[C@@H]3c4[nH]c5cc(OC)ccc5c4CCN3C[C@H]2C[C@@H](OC(=O)c2cc(OC)c(OC)c(OC)c2)[C@@H]1OC [RESERPINE]	Compound NOT metabolized

Experiment: The drug is tested on Providencia stuartii strain: ATCC25827 for biotransformation. The drug concentrations were measured before and after a 12-h incubation by liquid-chromatography-coupled mass spectrometry (LC–MS)
Details: 2 µM

SMILES	Bacterial Biotransformation
CCN(CC)CCNC(=O)c1cc(S(C)(=O)=O)ccc1OC [TIAPRIDE]	Compound NOT metabolized
CCCCC(=O)N(Cc1ccc(-c2ccccc2-c2nnn[nH]2)cc1)[C@H](C(=O)O)C(C)C	Compound NOT metabolized
COc1ccc(/C=C/C(=O)Nc2ccccc2C(=O)O)cc1OC	Compound NOT metabolized
COC(=O)[C@H]1[C@H]2C[C@@H]3c4[nH]c5cc(OC)ccc5c4CCN3C[C@H]2C[C@@H](OC(=O)c2cc(OC)c(OC)c(OC)c2)[C@@H]1OC [RESERPINE]	Compound NOT metabolized

Experiment: The drug is tested on Ruminococcus lactaris strain: ATCC29176 for biotransformation. The drug concentrations were measured before and after a 12-h incubation by liquid-chromatography-coupled mass spectrometry (LC–MS)
Details: 2 µM

SMILES	Bacterial Biotransformation
CCN(CC)CCNC(=O)c1cc(S(C)(=O)=O)ccc1OC [TIAPRIDE]	Compound NOT metabolized
CCCCC(=O)N(Cc1ccc(-c2ccccc2-c2nnn[nH]2)cc1)[C@H](C(=O)O)C(C)C	Compound NOT metabolized
COc1ccc(/C=C/C(=O)Nc2ccccc2C(=O)O)cc1OC	Compound NOT metabolized
COC(=O)[C@H]1[C@H]2C[C@@H]3c4[nH]c5cc(OC)ccc5c4CCN3C[C@H]2C[C@@H](OC(=O)c2cc(OC)c(OC)c(OC)c2)[C@@H]1OC [RESERPINE]	Compound NOT metabolized

Experiment: The drug is tested on Parabacteroides merdae strain: ATCC43184 for biotransformation. The drug concentrations were measured before and after a 12-h incubation by liquid-chromatography-coupled mass spectrometry (LC–MS)
Details: 2 µM

SMILES	Bacterial Biotransformation
CCN(CC)CCNC(=O)c1cc(S(C)(=O)=O)ccc1OC [TIAPRIDE]	Compound NOT metabolized
CCCCC(=O)N(Cc1ccc(-c2ccccc2-c2nnn[nH]2)cc1)[C@H](C(=O)O)C(C)C	Compound NOT metabolized
COc1ccc(/C=C/C(=O)Nc2ccccc2C(=O)O)cc1OC	Compound NOT metabolized
COC(=O)[C@H]1[C@H]2C[C@@H]3c4[nH]c5cc(OC)ccc5c4CCN3C[C@H]2C[C@@H](OC(=O)c2cc(OC)c(OC)c(OC)c2)[C@@H]1OC [RESERPINE]	Compound NOT metabolized

Experiment: The drug is tested on Bacteroides caccae strain: ATCC43185 for biotransformation. The drug concentrations were measured before and after a 12-h incubation by liquid-chromatography-coupled mass spectrometry (LC–MS)
Details: 2 µM

SMILES	Bacterial Biotransformation
CCN(CC)CCNC(=O)c1cc(S(C)(=O)=O)ccc1OC [TIAPRIDE]	Compound NOT metabolized
CCCCC(=O)N(Cc1ccc(-c2ccccc2-c2nnn[nH]2)cc1)[C@H](C(=O)O)C(C)C	Compound NOT metabolized
COC(=O)[C@H]1[C@H]2C[C@@H]3c4[nH]c5cc(OC)ccc5c4CCN3C[C@H]2C[C@@H](OC(=O)c2cc(OC)c(OC)c(OC)c2)[C@@H]1OC [RESERPINE]	Compound NOT metabolized

Experiment: The drug is tested on Anaerococcus hydrogenalis strain: DSM7454 for biotransformation. The drug concentrations were measured before and after a 12-h incubation by liquid-chromatography-coupled mass spectrometry (LC–MS)
Details: 2 µM

SMILES	Bacterial Biotransformation
CCN(CC)CCNC(=O)c1cc(S(C)(=O)=O)ccc1OC [TIAPRIDE]	Compound NOT metabolized
CCCCC(=O)N(Cc1ccc(-c2ccccc2-c2nnn[nH]2)cc1)[C@H](C(=O)O)C(C)C	Compound NOT metabolized
COc1ccc(/C=C/C(=O)Nc2ccccc2C(=O)O)cc1OC	Compound metabolized
COC(=O)[C@H]1[C@H]2C[C@@H]3c4[nH]c5cc(OC)ccc5c4CCN3C[C@H]2C[C@@H](OC(=O)c2cc(OC)c(OC)c(OC)c2)[C@@H]1OC [RESERPINE]	Compound NOT metabolized

Details: bacteroides fragilis, 12 h, 2 µM
Remark: another data set of the same source
Description: The drug is tested on Bacteroides fragilis strain: DS-208 for biotransformation. The drug concentrations were measured before and after a 12-h incubation by liquid-chromatography-coupled mass spectrometry (LC–MS)

SMILES	Bacterial Biotransformation
CCCCC(=O)N(Cc1ccc(-c2ccccc2-c2nnn[nH]2)cc1)[C@H](C(=O)O)C(C)C	Compound metabolized
COc1ccc(/C=C/C(=O)Nc2ccccc2C(=O)O)cc1OC	Compound NOT metabolized
COC(=O)[C@H]1[C@H]2C[C@@H]3c4[nH]c5cc(OC)ccc5c4CCN3C[C@H]2C[C@@H](OC(=O)c2cc(OC)c(OC)c(OC)c2)[C@@H]1OC [RESERPINE]	Compound NOT metabolized

Experiment: The drug is tested on Eubacterium rectale strain: ATCC33656 for biotransformation. The drug concentrations were measured before and after a 12-h incubation by liquid-chromatography-coupled mass spectrometry (LC–MS)
Details: agathobacter rectalis, 2 µM

SMILES	Bacterial Biotransformation
CCN(CC)CCNC(=O)c1cc(S(C)(=O)=O)ccc1OC [TIAPRIDE]	Compound NOT metabolized
CCCCC(=O)N(Cc1ccc(-c2ccccc2-c2nnn[nH]2)cc1)[C@H](C(=O)O)C(C)C	Compound NOT metabolized
COc1ccc(/C=C/C(=O)Nc2ccccc2C(=O)O)cc1OC	Compound NOT metabolized
COC(=O)[C@H]1[C@H]2C[C@@H]3c4[nH]c5cc(OC)ccc5c4CCN3C[C@H]2C[C@@H](OC(=O)c2cc(OC)c(OC)c(OC)c2)[C@@H]1OC [RESERPINE]	Compound NOT metabolized

Details: bacteroides thetaiotaomicron, 12 h, 2 µM
Description: The drug is tested on Bacteroides thetaiotaomicron strain: 3731 for biotransformation. The drug concentrations were measured before and after a 12-h incubation by liquid-chromatography-coupled mass spectrometry (LC–MS)

SMILES	Bacterial Biotransformation
CCN(CC)CCNC(=O)c1cc(S(C)(=O)=O)ccc1OC [TIAPRIDE]	Compound NOT metabolized
CCCCC(=O)N(Cc1ccc(-c2ccccc2-c2nnn[nH]2)cc1)[C@H](C(=O)O)C(C)C	Compound metabolized
COc1ccc(/C=C/C(=O)Nc2ccccc2C(=O)O)cc1OC	Compound NOT metabolized
COC(=O)[C@H]1[C@H]2C[C@@H]3c4[nH]c5cc(OC)ccc5c4CCN3C[C@H]2C[C@@H](OC(=O)c2cc(OC)c(OC)c(OC)c2)[C@@H]1OC [RESERPINE]	Compound NOT metabolized

Experiment: The drug is tested on Blautia luti strain: DSM14534 for biotransformation. The drug concentrations were measured before and after a 12-h incubation by liquid-chromatography-coupled mass spectrometry (LC–MS)
Format: ADME
Parameters: dose 2 uM, timepoint 0 vs 12 hours
Details: 2 µM

SMILES	Bacterial Biotransformation
CCN(CC)CCNC(=O)c1cc(S(C)(=O)=O)ccc1OC [TIAPRIDE]	Compound NOT metabolized
COc1ccc(/C=C/C(=O)Nc2ccccc2C(=O)O)cc1OC	Compound NOT metabolized
COC(=O)[C@H]1[C@H]2C[C@@H]3c4[nH]c5cc(OC)ccc5c4CCN3C[C@H]2C[C@@H](OC(=O)c2cc(OC)c(OC)c(OC)c2)[C@@H]1OC [RESERPINE]	Compound NOT metabolized

Experiment: The drug is tested on Bacteroides fragilis strain: ATCC43859 for biotransformation. The drug concentrations were measured before and after a 12-h incubation by liquid-chromatography-coupled mass spectrometry (LC–MS)
Details: 2 µM

SMILES	Bacterial Biotransformation
CCN(CC)CCNC(=O)c1cc(S(C)(=O)=O)ccc1OC [TIAPRIDE]	Compound NOT metabolized
CCCCC(=O)N(Cc1ccc(-c2ccccc2-c2nnn[nH]2)cc1)[C@H](C(=O)O)C(C)C	Compound metabolized
COc1ccc(/C=C/C(=O)Nc2ccccc2C(=O)O)cc1OC	Compound NOT metabolized
COC(=O)[C@H]1[C@H]2C[C@@H]3c4[nH]c5cc(OC)ccc5c4CCN3C[C@H]2C[C@@H](OC(=O)c2cc(OC)c(OC)c(OC)c2)[C@@H]1OC [RESERPINE]	Compound NOT metabolized

Details: parabacteroides johnsonii, 12 h, 2 µM
Description: The drug is tested on Parabacteroides johnsonii strain: DSM18315 for biotransformation. The drug concentrations were measured before and after a 12-h incubation by liquid-chromatography-coupled mass spectrometry (LC–MS)

SMILES	Bacterial Biotransformation
CCN(CC)CCNC(=O)c1cc(S(C)(=O)=O)ccc1OC [TIAPRIDE]	Compound NOT metabolized
CCCCC(=O)N(Cc1ccc(-c2ccccc2-c2nnn[nH]2)cc1)[C@H](C(=O)O)C(C)C	Compound NOT metabolized
COc1ccc(/C=C/C(=O)Nc2ccccc2C(=O)O)cc1OC	Compound NOT metabolized
COC(=O)[C@H]1[C@H]2C[C@@H]3c4[nH]c5cc(OC)ccc5c4CCN3C[C@H]2C[C@@H](OC(=O)c2cc(OC)c(OC)c(OC)c2)[C@@H]1OC [RESERPINE]	Compound NOT metabolized

Experiment: The drug is tested on Bacteroides fragilis strain: HMW615 for biotransformation. The drug concentrations were measured before and after a 12-h incubation by liquid-chromatography-coupled mass spectrometry (LC–MS)
Details: 2 µM

SMILES	Bacterial Biotransformation
CCN(CC)CCNC(=O)c1cc(S(C)(=O)=O)ccc1OC [TIAPRIDE]	Compound NOT metabolized
CCCCC(=O)N(Cc1ccc(-c2ccccc2-c2nnn[nH]2)cc1)[C@H](C(=O)O)C(C)C	Compound metabolized
COc1ccc(/C=C/C(=O)Nc2ccccc2C(=O)O)cc1OC	Compound NOT metabolized
COC(=O)[C@H]1[C@H]2C[C@@H]3c4[nH]c5cc(OC)ccc5c4CCN3C[C@H]2C[C@@H](OC(=O)c2cc(OC)c(OC)c(OC)c2)[C@@H]1OC [RESERPINE]	Compound NOT metabolized
